Experimental data reported in patent US20250328351A1, “CARBONIC ANHYDRASE INHIBITORS AND ANTIBIOTICS AGAINST MULTIDRUG RESISTANT BACTERIA” (Purdue Research Foundation, priority 2018, published 2025).
In brackets after ≈: the same amount, converted by molar mass. Read-outs that look alike come from different tables or passages of the source.

Tests used:
[1] = system: Enterococcus faecalis S613 HM-334; assay: MIC, broth microdilution (CLSI); format: cell-based; conditions: Enterococcus faecalis, read-out: MIC
[2] = system: Mutant-3 of Enterococcus fecalis NR 31975; assay: microbe, parasite or virus in culture; format: cell-based

CC(C)=CC(=O)Nc1nnc(S(N)(=O)=O)s1 [CAI0016, 3-Methyl-N-(5-sulfamoyl-1,3,4-thiadiazol-2-yl)but-2-enamide]
MIC ([1]; S613HM334, Table 1, TSB): 0.5 µg/mL (≈ 1.91 µM)
MIC ([1]; S613HM334, Table 6, TSB in presence of 4% human serum albumin): > 256 µg/mL
MIC ([1]; S613HM334, Table 7, TSB): 0.25 µg/mL (≈ 0.953 µM)
MIC [2]: 4 µg/mL (≈ 15.2 µM)
